US20230173090A1, “COMPOSITIONS AND METHODS FOR MODULATING DOPAMINE RECEPTOR ACTIVITY” (The Regents of the University of California, priority 2020, published 2023)

Legend:
D1R and D5R = test: Open field test, bilateral dStr-infusion of SKF82958 in D1-Cre mice; format: in vivo
Protocol: FIGS. 21A-21K. […] (A) An infusion of SKF82958 directly to the dorsal striatum (dStr) activates D1R and D5R in various cell types of this brain area and could diffuse into other brain areas. (B) Time course of the effect of a bilateral dStr-infusion of SKF82958 (400 nL per hemisphere) on the locomotion of D1-Cre mice in an open field. (C) Average velocity in the last 10 minutes of the open field test. one-way ANOVA, F = 14.3, Bonferroni, ^∗∗p < 0.01, ^∗∗∗p < 0.001. n = 5 mice per condition. (D) Time to maximum locomotion with SKF82958 or MP-D1ago. unpaired two-sided t-test, ^∗∗∗∗p < 0.0001. n = 5 for SKF82958, n = 7 mice for MP-D1ago. (E) Example movement dynamics of a mouse treated with vehicle or 100 µg SKF82958. Shown for SKF82958-treated mice is the (F) average percent of the time in motion, (G) average initiations per second, (H) average movement bout duration, and (I) the average maximum movement bout velocity. […] Bonferroni, ^∗p < 0.05, ^∗∗p < 0.01. n = 5 mice. (J) Representative coronal brain slice from a mouse infused with SKF82958. grey bar = 1 mm. blue = DAPI staining. (K) Summary of cannula locations for individual mice.

D1R = target: T1, D1R (Homo sapiens, UniProt P21728); test: D1R-mediated GIRK channel activation assay in HEK293T cells (whole-cell electrophysiology); format: cell-based; settings: % of photocurrent in the absence of LE300
T1 construct: expressed in transfected cells; host or cells: HEK293T (A1, A2); HEK293 (A26)
T1 sequence (P21728 whole entry): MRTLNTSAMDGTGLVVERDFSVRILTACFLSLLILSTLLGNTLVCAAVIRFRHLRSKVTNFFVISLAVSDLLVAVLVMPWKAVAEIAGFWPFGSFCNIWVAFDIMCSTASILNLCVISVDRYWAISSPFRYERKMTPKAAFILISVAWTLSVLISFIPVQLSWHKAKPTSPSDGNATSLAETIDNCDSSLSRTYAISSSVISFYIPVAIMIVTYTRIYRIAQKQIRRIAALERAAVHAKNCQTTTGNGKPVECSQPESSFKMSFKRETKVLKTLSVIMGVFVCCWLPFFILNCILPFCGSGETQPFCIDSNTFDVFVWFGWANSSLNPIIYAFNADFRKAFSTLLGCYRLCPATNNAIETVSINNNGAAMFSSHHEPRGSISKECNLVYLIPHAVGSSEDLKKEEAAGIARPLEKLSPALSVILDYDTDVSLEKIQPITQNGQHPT
Protocol: All constructs were cloned into mammalian expression vectors. For the receptor mediated-GIRK activation assay, HEK293T cells were seeded onto 18 mm coverslips and transiently transfected overnight with Lipofectamine 2000 and the following constructs: a receptor, a variant of the membrane-anchor (M; 0.7 µg), GIRK1(F137S) (0.7 µg), and tdTomato (0.2 µg). […] D1R, D5R, or opto-D1R were cotransfected with Gαis13 (0.35 µg), D3R with GαoA (0.7 µg), and M1R or mGluR1 with Gαiq5. Transfected cells were used for electrophysiology, imaging, or flow cytometry experiments.
HEK293T cells were sparsely seeded and maintained in DMEM (Invitrogen) with 10% fetal bovine serum on poly-L-lysine-coated coverslips at 37° C. and 5% CO2. HEK293T cells were voltage clamped in whole-cell configuration 16-48 hours after transfection. […] GluK2 electrophysiology was performed in the presence of 0.3 mg/mL concanavalin A to prevent desensitization. […] Cells were voltage clamped to -60 or -80 mV using an Axopatch 200A (Molecular Devices) amplifier.
For all experiments, compounds were applied using a gravity-driven perfusion system and illumination was applied to the entire field of view using a Polychrome V monochromator (TILL Photonics) through a 20x objective (maximum 0.05 mW/mm^2 at 370 nm and 0.5 mW/mm^2 at 460 nm or 473 nm) or a DG4 (Sutter) through a 20x objective (maximum 0.06 mW/mm^2 at 370 nm and 0.6 mW/mm^2 at 445 nm). pClamp software was used for both data acquisition and control of illumination.
The selection criteria for electrophysiological experiments are that a cell (i) expresses the fluorescent protein transfection marker, and (ii) responds to agonist, indicating the presence of either receptor and GIRK or an LGIC. Cells were not excluded unless the recording was of poor quality (e.g., unstable baseline).
Data were analyzed using GraphPad Prism (GraphPad), Clampfit (Axon instruments), Origin (OriginLab), MATLAB, or ImageJ software. For dose-response curves, data were normalized to vehicle (0%) and DA (100%) and nonlinear regression analysis was performed using the sigmoidal dose-response function in GraphPad Prism. Statistical analyses were performed using GraphPad Prism. All values reported are mean ± S.E.M.
FIGS. 9A-9H. Functional properties of untethered P-D1ago. (A) Schematic representation of a D1R-mediated G protein-coupled inwardly rectifying potassium (GIRK) channel assay in HEK293T cells. Agonist-induced receptor activation results in the recruitment of a heterotrimeric G protein containing the chimeric Gα subunit (Gαis) followed by the release of Gβγ, which activates GIRK channels and enhances inward-current. […] (E) Schematic representation of a highly sensitive D1R-mediated cAMP accumulation assay in HEK293T cells. Agonist-induced D1R activation results in Gs/olfrecruitment followed by the binding of its Gα subunit to adenylate cyclase (AC), which enhances the conversion of ATP to cAMP. cAMP binds the bioluminescence resonance energy transfer 1 (BRET′)-based cAMP sensor CAMYEL^87, resulting in a conformational change in its Epac domain that increases the distance and decreases BRET^1 between the donor Renilla luciferase (Rluc) and the acceptor YFP. […] Optimization and characterization of the D1R MP

Row | Compound | duration of the movement bouts (D1R and D5R) | movement initiation (D1R and D5R) | percentage of the time in motion (D1R and D5R) | locomotion in an open field (D1R and D5R; 400 nL per hemisphere) | photoactivation of D1R by P-D1ago tethered to the M in the presence of LE300 (D1R)
1 | C=CCN1CCc2c(cc(O)c(O)c2Cl)C(c2ccccc2)C1 (centres unmarked) [SKF82958] | increased | increased | increased the percentage of the time that the mice were in motion | enhanced locomotion | –
2 | CN1CCc2ccccc2Cc2[nH]c3ccccc3c2CC1 [LE300, reference compound] | – | – | – | – | 3.3 ± 3.3%
